Reference: ChEMBL document CHEMBL1141234, “Synthesis and SAR of highly potent dual 5-HT1A and 5-HT1B antagonists as potential antidepressant drugs” (Bioorg Med Chem Lett, 2005)
Activity calls are given as the source filed them. The calls are words filed in the database; no cut-off is given here.

Experiments:
[1] = molecular target: Sodium-dependent noradrenaline transporter (Homo sapiens) (UniProt P23975); assay: Inhibitory activity against NET upto 10 uM
[2] = molecular target: T1, 5-hydroxytryptamine receptor 1A (Homo sapiens, UniProt P08908); assay: Displacement of [35S]GTP-gamma-S from human recombinant 5HT1A receptor; assay type: functional
T1 sequence (P08908 whole entry): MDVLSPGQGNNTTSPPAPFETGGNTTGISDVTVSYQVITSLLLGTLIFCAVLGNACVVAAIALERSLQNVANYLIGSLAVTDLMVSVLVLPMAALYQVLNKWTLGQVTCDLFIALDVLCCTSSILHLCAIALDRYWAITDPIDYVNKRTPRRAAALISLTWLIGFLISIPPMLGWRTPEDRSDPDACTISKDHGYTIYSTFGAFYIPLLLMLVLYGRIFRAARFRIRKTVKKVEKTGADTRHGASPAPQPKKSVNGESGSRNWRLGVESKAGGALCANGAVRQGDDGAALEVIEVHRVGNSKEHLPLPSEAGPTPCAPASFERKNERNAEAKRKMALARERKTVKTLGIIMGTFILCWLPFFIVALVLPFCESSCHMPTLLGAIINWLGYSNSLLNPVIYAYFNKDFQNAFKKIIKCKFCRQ

[3] = molecular target: T2, 5-hydroxytryptamine receptor 1B (Homo sapiens, UniProt P28222); assay: Inhibitory activity against human recombinant 5HT1B receptor co-expressed with G-protein chimera Gqo5 in HEK293 cells by FLIPR; assay type: functional, cell-based
T2 sequence (P28222 whole entry): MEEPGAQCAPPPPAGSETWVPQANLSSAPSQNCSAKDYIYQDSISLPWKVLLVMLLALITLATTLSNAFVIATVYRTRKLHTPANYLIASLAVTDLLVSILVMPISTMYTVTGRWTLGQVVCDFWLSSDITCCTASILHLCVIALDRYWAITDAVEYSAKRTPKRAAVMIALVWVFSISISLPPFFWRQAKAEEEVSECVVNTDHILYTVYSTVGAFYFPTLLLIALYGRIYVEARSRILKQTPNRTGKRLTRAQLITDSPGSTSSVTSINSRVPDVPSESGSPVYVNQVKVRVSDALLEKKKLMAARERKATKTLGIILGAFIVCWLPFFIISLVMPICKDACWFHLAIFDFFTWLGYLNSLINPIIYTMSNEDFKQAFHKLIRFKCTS

[4] = molecular target: T3, 5-hydroxytryptamine receptor 2C (Homo sapiens, UniProt P28335); assay: Inhibitory activity against 5HT2C receptor
T3 sequence (P28335 whole entry): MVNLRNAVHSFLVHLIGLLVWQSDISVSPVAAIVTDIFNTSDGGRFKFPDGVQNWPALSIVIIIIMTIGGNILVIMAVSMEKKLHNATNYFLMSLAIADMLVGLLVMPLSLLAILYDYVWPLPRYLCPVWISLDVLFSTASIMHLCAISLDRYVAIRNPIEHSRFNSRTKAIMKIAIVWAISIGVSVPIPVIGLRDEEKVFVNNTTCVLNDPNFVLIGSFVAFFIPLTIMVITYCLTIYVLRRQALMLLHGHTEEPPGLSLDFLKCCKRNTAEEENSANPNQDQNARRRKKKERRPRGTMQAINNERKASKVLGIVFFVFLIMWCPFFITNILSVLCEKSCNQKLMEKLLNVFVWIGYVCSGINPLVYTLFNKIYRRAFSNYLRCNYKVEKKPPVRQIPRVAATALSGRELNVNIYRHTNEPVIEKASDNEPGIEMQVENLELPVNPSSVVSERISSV

[5] = molecular target: Sodium-dependent dopamine transporter (Homo sapiens) (UniProt Q01959); assay: Inhibitory activity against DAT upto 10 uM
Chain of Sodium-dependent dopamine transporter (Homo sapiens) (Q01959 whole entry): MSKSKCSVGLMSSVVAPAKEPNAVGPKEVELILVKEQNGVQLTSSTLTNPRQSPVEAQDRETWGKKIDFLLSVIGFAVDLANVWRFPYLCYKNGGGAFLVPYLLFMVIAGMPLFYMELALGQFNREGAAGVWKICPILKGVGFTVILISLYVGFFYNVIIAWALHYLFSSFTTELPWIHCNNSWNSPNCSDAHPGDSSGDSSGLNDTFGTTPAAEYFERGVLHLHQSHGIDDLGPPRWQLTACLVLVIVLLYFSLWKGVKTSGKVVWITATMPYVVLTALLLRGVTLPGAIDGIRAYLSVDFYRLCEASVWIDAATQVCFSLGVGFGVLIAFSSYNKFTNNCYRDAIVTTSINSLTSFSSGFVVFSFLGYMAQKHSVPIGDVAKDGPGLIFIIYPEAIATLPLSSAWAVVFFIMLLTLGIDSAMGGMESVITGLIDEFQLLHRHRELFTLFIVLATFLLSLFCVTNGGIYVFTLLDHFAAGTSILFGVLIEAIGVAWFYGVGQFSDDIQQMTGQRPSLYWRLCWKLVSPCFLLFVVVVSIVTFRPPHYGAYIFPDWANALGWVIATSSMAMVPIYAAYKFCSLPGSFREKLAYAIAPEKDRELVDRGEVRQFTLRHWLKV

[6] = molecular target: T2, 5-hydroxytryptamine receptor 1B; assay: Functional activity in FLIPR assay for 5HT1B receptor; details: filed as antagonist
[7] = organism: Rattus norvegicus; assay: Electrically stimulated [3H]5-HT release from rat brain cortical slices at 1 uM; assay type: functional, tissue-based

Chain of Sodium-dependent noradrenaline transporter (Homo sapiens) (P23975 whole entry): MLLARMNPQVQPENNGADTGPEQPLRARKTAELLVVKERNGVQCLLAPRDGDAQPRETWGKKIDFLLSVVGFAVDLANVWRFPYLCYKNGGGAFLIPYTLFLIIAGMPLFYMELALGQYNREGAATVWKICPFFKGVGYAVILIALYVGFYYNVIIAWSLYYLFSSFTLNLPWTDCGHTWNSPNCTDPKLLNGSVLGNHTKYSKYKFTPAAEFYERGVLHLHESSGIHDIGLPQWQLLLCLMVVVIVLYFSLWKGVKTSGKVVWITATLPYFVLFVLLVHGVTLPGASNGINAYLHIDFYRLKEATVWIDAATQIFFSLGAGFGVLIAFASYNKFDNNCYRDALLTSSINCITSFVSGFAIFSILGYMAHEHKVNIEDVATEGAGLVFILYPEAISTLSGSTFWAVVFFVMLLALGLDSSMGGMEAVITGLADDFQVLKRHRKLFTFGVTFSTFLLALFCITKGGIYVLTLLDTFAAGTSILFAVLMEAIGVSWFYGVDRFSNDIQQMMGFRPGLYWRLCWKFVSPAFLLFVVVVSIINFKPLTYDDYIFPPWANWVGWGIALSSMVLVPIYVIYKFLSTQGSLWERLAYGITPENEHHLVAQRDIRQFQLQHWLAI

CN1CCc2c(sc3ncn(CCN4CCN(c5cncc6ccccc56)CC4)c(=O)c23)C1
Activity [1]: inactive
IC50 [2]: 316 nM
Ki [2]: 4.7 nM
IC50 [3]: 35 nM
Ki [3]: 2.5 nM
Ki [4]: > 10000 nM
Activity [5]: inactive
Activity [6]: Antagonist
Activity [7]: Dose-dependent effect
